In patent publication US11384048B2, “Aromatic vinyl or aromatic ethyl derivative, preparation method therefor, intermediate, pharmaceutical composition, and application” (GUANGZHOU MAXINOVEL PHARMACEUTICALS CO., LTD., priority 2017, dated 2022):

Biological target: PD-1/PD-L1 (Homo sapiens (Human), UniProt Q9NZQ7)
Assay: Homogenouse Time-Resolved Fluorescence (HTRF) binding assay PD-1/PD-L1
Conditions: CisBio kit #64CUS000C-1
Description: Homogenouse Time-Resolved Fluorescence (HTRF) binding assay was used to determine the binding activity of the compound of the present disclosure to PD-1/PD-L1.
The purchased kit (CisBio, #64CUS000C-1) contained the reagents required for experiments such as PD-1, PD-L1, anti-tag1-Eu, Anti-tag2-XL665, Dilute Buffer and Detection Buffer.
1. The compound was formulated to 10 concentrations with a three-fold concentration gradient with 100% DMSO.
2. The solution of the compound in DMSO was added to Dilute Buffer, and mixed evenly and then transferred to a 96-well plate.
3. PD-L1 was diluted with Dilute Buffer and added to the 96-well plate above.
4. PD-1 was diluted with Dilute Buffer, then added to the 96-well plate above and incubated at room temperature for 30 minutes.
5. One portion of anti-tag1-Eu and one portion of anti-tag2-XL665 were added to Detection Buffer, mixed evenly and transferred to the 96-well plate above.
6. The mixed solution in the 96-well plate were incubated at room temperature for 1 to 24 hours.
7. HTRF values were read by Envision.

PD-1/PD-L1, sequence (Q9NZQ7 19-238): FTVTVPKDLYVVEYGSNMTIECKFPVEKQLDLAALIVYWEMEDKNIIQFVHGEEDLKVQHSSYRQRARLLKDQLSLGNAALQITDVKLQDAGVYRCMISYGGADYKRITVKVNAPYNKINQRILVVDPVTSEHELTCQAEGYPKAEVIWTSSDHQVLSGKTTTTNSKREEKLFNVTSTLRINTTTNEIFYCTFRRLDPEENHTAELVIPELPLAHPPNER

IC50 | Structure (SMILES)
1300 nM | Cc1c(/C=C/c2cc(CN[C@@](C)(CO)C(=O)O)ccc2C(F)(F)F)cccc1-c1cn2ccnc2cn1 [Compound 37]
> 10000 nM | Cc1c(/C=C/c2cc(CN[C@@](C)(CO)C(=O)O)ccc2C(F)(F)F)cccc1-c1ccc2nccn2c1 [Compound 36]
540 nM | Cc1nc2ccc(-c3cccc(/C=C/c4cc(CN[C@@](C)(CO)C(=O)O)ccc4C(F)(F)F)c3C)cc2o1 [Compound 43, (S,E)-3-hydroxy-2-methyl-2-(3-(2-methyl-3-(2-methylbenzo[d]oxazol-6-yl)-styryl)-4-(trifluoromethyl)benzylamino)-3-hydroxy-2-methylpropanoic acid]
